We go through eleven compounds from ChEMBL document CHEMBL3414499, “Characterization of two distinct structural classes of selective aldehyde dehydrogenase 1A1 inhibitors” (J Med Chem, 2015).

Activity calls are given as the source filed them. The rule behind the calls is not given here. A value given as a limit tells only on which side of the number the result lay.

Assay [1] addresses T1, Aldehyde dehydrogenase, mitochondrial (Homo sapiens, UniProt P05091).
T1 sequence (P05091 whole entry): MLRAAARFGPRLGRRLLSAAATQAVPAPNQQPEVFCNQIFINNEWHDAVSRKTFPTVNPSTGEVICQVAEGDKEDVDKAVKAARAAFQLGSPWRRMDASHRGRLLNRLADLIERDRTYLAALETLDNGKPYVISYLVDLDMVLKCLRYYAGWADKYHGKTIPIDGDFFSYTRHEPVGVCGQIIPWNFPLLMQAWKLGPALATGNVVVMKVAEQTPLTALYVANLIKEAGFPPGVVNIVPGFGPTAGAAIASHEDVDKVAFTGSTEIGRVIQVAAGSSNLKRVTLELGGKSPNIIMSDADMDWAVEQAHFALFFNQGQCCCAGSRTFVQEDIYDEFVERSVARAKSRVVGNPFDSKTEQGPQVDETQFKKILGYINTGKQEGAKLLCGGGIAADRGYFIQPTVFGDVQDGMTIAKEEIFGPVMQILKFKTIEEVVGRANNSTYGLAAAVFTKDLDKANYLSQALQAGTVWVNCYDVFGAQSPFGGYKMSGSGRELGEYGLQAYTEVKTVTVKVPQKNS
As to the kind of experiment: Inhibition of recombinant human ALDH2 using propionaldehyde as substrate preincubated for 2 mins with NAD+ followed by substrate addition by UV-Vis spectrophotometric analysis.

For assay [2], the target named is T2, Retinal dehydrogenase 2 (Homo sapiens) (UniProt O94788).
T2 sequence (whole entry): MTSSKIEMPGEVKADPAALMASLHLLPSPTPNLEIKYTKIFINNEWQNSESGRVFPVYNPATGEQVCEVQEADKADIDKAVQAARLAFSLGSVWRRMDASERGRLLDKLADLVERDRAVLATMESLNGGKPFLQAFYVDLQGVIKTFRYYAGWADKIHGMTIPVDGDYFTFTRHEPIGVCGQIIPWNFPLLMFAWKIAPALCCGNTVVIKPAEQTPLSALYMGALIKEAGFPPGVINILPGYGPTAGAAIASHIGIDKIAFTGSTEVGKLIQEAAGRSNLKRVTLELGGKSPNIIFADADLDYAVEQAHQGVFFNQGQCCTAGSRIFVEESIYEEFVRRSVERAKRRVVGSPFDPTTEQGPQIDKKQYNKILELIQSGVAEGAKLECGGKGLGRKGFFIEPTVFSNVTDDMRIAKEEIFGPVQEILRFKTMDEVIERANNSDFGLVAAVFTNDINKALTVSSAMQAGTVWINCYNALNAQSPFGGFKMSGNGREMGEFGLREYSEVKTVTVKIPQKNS
As to the kind of experiment: Inhibition of recombinant human ALDH1A2 using propionaldehyde as substrate at 100 uM preincubated for 2 mins with NAD+ followed by substrate addition by UV-Vis spectrophotometric analysis.

Assay [3] deals with T3, Aldehyde dehydrogenase X, mitochondrial (Homo sapiens, UniProt P30837).
T3 sequence (P30837 whole entry): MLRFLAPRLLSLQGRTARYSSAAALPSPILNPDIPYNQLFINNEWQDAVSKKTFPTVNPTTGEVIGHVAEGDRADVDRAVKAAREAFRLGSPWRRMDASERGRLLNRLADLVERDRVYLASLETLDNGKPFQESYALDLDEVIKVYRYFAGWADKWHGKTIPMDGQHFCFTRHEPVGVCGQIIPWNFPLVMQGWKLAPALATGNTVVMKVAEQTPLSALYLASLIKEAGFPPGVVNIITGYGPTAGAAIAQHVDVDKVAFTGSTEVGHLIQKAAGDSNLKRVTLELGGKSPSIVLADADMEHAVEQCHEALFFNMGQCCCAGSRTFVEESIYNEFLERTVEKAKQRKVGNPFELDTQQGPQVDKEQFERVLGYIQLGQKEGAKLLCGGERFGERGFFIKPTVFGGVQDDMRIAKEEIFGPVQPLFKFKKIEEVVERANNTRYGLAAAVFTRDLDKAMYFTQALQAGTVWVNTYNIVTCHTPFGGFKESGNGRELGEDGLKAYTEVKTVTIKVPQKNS
The assay can be described thus: Inhibition of recombinant human ALDH1B1 using propionaldehyde as substrate preincubated for 2 mins with NAD+ followed by substrate addition by UV-Vis spectrophotometric analysis.

Assay [4] deals with T4, Aldehyde dehydrogenase X, mitochondrial (Homo sapiens) (UniProt P30837).
T4 sequence (whole entry): T3 sequence (P30837 whole entry)
The assay can be described thus: Inhibition of recombinant human ALDH1B1 using propionaldehyde as substrate at 100 uM preincubated for 2 mins with NAD+ followed by substrate addition by UV-Vis spectrophotometric analysis.

Assay [5] concerns the target T5, Retinaldehyde dehydrogenase 3 (Homo sapiens, UniProt P47895).
T5 sequence (P47895 whole entry): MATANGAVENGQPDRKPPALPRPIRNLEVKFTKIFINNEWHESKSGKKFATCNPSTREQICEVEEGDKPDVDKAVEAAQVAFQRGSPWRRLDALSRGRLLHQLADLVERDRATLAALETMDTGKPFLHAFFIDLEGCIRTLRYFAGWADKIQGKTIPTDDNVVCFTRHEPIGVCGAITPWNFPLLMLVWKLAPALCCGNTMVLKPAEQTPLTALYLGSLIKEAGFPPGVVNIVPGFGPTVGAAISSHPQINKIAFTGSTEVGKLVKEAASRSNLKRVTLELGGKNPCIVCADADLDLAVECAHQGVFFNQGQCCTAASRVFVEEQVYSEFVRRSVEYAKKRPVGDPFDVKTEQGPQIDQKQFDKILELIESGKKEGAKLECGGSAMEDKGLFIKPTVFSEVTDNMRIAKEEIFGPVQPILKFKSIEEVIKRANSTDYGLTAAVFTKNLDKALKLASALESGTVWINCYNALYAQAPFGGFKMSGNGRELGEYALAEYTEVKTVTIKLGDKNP
The assay can be described thus: Inhibition of recombinant human ALDH1A3 using propionaldehyde as substrate preincubated for 2 mins with NAD+ followed by substrate addition by UV-Vis spectrophotometric analysis.

Assay [6] deals with T4, Aldehyde dehydrogenase X, mitochondrial (Homo sapiens). As to the kind of experiment: Activation of recombinant human ALDH1B1 using propionaldehyde as substrate at 100 uM preincubated for 2 mins with NAD+ followed by substrate addition by UV-Vis spectrophotometric analysis.
Assay [7] deals with T6, Retinal dehydrogenase 2 (Homo sapiens, UniProt O94788).
T6 sequence (O94788 whole entry): T2 sequence (whole entry)
As to the kind of experiment: Inhibition of recombinant human ALDH1A2 using propionaldehyde as substrate preincubated for 2 mins with NAD+ followed by substrate addition by UV-Vis spectrophotometric analysis.

The target of assay [8] is T7, Aldehyde dehydrogenase, mitochondrial (Homo sapiens) (UniProt P05091).
T7 sequence (whole entry): T1 sequence (P05091 whole entry)
As to the kind of experiment: Effect on recombinant human ALDH2 using propionaldehyde as substrate at 20 uM preincubated for 2 mins with NAD+ followed by substrate addition by UV-Vis spectrophotometric analysis.

For assay [9], the target named is T8, Retinaldehyde dehydrogenase 3 (Homo sapiens) (UniProt P47895).
T8 sequence (whole entry): T5 sequence (P47895 whole entry)
The assay can be described thus: Effect on recombinant human ALDH1A3 using propionaldehyde as substrate at 20 uM preincubated for 2 mins with NAD+ followed by substrate addition by UV-Vis spectrophotometric analysis.

Assay [10] concerns the target T2, Retinal dehydrogenase 2 (Homo sapiens). The assay can be described thus: Activation of recombinant human ALDH1A2 using propionaldehyde as substrate at 100 uM preincubated for 2 mins with NAD+ followed by substrate addition by UV-Vis spectrophotometric analysis.
The target is the same in assay [11]. As to the kind of experiment: Effect on recombinant human ALDH1A2 using propionaldehyde as substrate at 20 uM preincubated for 2 mins with NAD+ followed by substrate addition by UV-Vis spectrophotometric analysis.

Turning to `CC(C)CCn1c(CN2CCOCC2)nc2c1c(=O)n(C)c(=O)n2C`, the IC50 in assay [1] and in assay [3] was more than 100 µM throughout. In addition, the inhibition entry in [2] was “inactive”.
`CCN1CCN(Cc2nc3c(c(=O)n(C)c(=O)n3C)n2CC(=O)c2ccccc2)CC1`: the inhibition entry in [4] and in [2] was “inactive” in each case.
For `CCCCn1c(CN2CCN(c3ccc(OC)cc3)CC2)nc2c1c(=O)n(C)c(=O)n2C`, the IC50 in assay [5] and in assay [3] was more than 100 µM in each case. For the same compound, in [2], the inhibition entry is “inactive”.
As to `Cn1c(=O)c2c(nc(SCC(N)=O)n2Cc2ccccc2F)n(C)c1=O`, the inhibition result in assay [4] and in assay [2] was “inactive” each time.
As for `Cn1c(=O)c2c(nc(CN3CCC(C(N)=O)CC3)n2CCCc2ccccc2)n(C)c1=O`, the IC50 in assay [1] and in assay [3] was more than 100 µM in each case. Besides, the inhibition result in assay [2] was “inactive”.
In the case of `Cn1c(=O)c2c(nc(N3CCN(Cc4ccccc4)CC3)n2Cc2cccc(Cl)c2)n(C)c1=O`, in [6], the outcome was Active. For the same compound, in assay [7], the IC50 was more than 100 µM.
With `CCCCn1c(CN2CCN(c3cccc(Cl)c3)CC2)nc2c1c(=O)n(C)c(=O)n2C`, the IC50 in assay [5] was more than 20 µM; in assay [7], more than 100 µM; in assay [1] it was more than 100 µM; in [3], more than 100 µM.
On to `CC(C)CCn1c(CN2CCN(C(=O)c3ccco3)CC2)nc2c1c(=O)n(C)c(=O)n2C`, for which the result in assay [8], in [9] and in [11] was inactive. The result in assay [6] and in assay [10] was Active.
For the compound `Cn1c(=O)c2c(nc(N3CCOCC3)n2Cc2ccccc2F)n(C)c1=O`, the inhibition result in assay [4] was “inactive”. Besides, the outcome in [10] was Active.
As for `CCCCn1c(Oc2ccc(C(=O)OC)cc2)nc2c1c(=O)n(C)c(=O)n2C`, the IC50 in [7] is more than 100 µM. In addition, the inhibition entry in [4] is “inactive”.
For the compound `CC(C)CCn1c(CN(C)Cc2ccccc2)nc2c1c(=O)n(C)c(=O)n2C`, the IC50 in assay [7], in [1] and in assay [3] was more than 100 µM throughout.
